Laboratory results taken from patent publication US20220296522A1, “BRYOID COMPOSITIONS, METHODS OF MAKING AND USE THEREOF” (Aphios Corporation, priority 2021, published 2022).
“Also recorded” adds a separate entry of the source.

Legend:
alpha-secretase = alpha-secretase activity in SHSY-5Y neuroblastoma cells (FIG. 10); assay type: cell-based; settings: 10−9 M, versus Bryostatin-1
Description: Purified Bryoids at 10−^9 M are shown to increase alpha-secretase activity in SHSY-5Y neuroblastoma cells in FIG. 10.

[1] = tested on: B6C3-Tg (APPswe, PSEN1 dE9) 85Dbo/J mice; assay: Morris water maze in APP/PS1 Alzheimer's disease mice; assay type: in vivo, mouse
Method: Mouse strain B6C3-Tg carrying mutant Swedish Amyloid precursor protein (sweAPP) and PS I (presenilin-1) genes associated with early onset Alzheimer's disease were subjected to water maze tests at 5-6 months of age.
In vivo studies were conducted using the Morris water maze to evaluate cognitive impairments and restoration in response to drug treatments. These studies used the mouse strain B6C3-Tg (APPswe, PSEN1 dE9) 85Dbo/J mice (MMRRC, Jackson Labs).

[2] = Biodistribution of radio-labeled Bryostatin-1 by different administration routes; assay type: in vivo, mouse
Description: It is worth mentioning that oil formulations were used for […] and intraperitoneal studies. Aqueous formulations were used for intravenous administration and PET formulation for intranasal administration.

SK-HEP1 liver cells = assay: Metabolism by SK-HEP1 liver cells; assay type: in vitro ADME; settings: within 24 h
[3] = tested on: TS65DN transgenic mouse model of Down syndrome; assay: Morris water maze in TS65DN mouse model of Down syndrome, intranasal; assay type: in vivo; settings: PET formulation
Description: In this model, wild type mice improved over the 4 trials shown as a reduction in latency within the trial.
TS65DN mouse model of Down syndrome were purchased from MMRRC/Jackson Labs at 20-24 weeks of age and maintained in the LSUHSC-S vivarium. Segmentally trisomic Ts65Dn mice provide a postnatal model for Down syndrome.

[4] = Solubility of Bryostatin-1 in solvents and oils by normal phase HPLC; assay type: physicochemical; settings: for Concentration: theoretical 2.5 mg/100 mL
Method: Based on the hydrophobicity of Bryostatin-1, we developed an oil-based formulation of Bryostatin-1. […] Isopropyl alcohol, Extra Virgin olive oil, sesame oil, and vegetable oil were all used as solvents. Thirty microliters of the stock solution were placed in each of 4 clean, dry HPLC vials. The ethanol was allowed to evaporate, leaving 25 micrograms in the vial. Then, 1.0 mL of the solvent was placed in the vial and vortexed to ensure proper mixing. These samples were then injected on a normal phase HPLC system, with a gradient of 10%-70% isopropyl alcohol in hexane as the mobile phase (specifically developed for this experiment). The concentration of each vial theoretically should be 2.5 mg/100 mL.
The reason for the higher concentrations than the standard (isopropyl alcohol) is due to the baseline. While attempting a baseline subtraction for each oil, there was negative absorbance so the blank IPA sample was subtracted from each sample's baseline. While this incorporates a little more area for integration, the amount of Bryostatin in the oil was quantifiable.

[5] = over 72 h following intranasal administration

In the case of bryostatin-3 26-ketone [Bryoid B16], the alpha-secretase activity (alpha-secretase) is reported as “improve the production of alpha-secretase over Bryostatin-1”.
With CCC/C=C/C=C/C(=O)O[C@H]1/C(=C/C(=O)OC)C[C@H]2C[C@H]([C@@H](C)O)OC(=O)C[C@H](O)C[C@@H]3C[C@H](OC(C)=O)C(C)(C)[C@](O)(C[C@@H]4C/C(=C/C(=O)OC)C[C@H](/C=C/C(C)(C)[C@]1(O)O2)O4)O3 [Bryostatin-1] the “protection against memory loss in water maze” value ([1]; 5 micrograms/mouse on alternative days orally in oil formulation, APP/PS1 mice 5-6 months of age, versus control animals) was “significant protection against Alzheimer's disease mediated memory loss”, the “responses in water maze” value ([1]; i.p. treated mice) was “did not find that i.p. treated mice showed as good responses” and the “tissue distribution of 3H-labeled tracer” value ([2]; 8 h following intranasal administration, normalized to CPM/g) was “most abundant in hippocampus, large intestine and urine”. For the same compound, the “tissue distribution of 3H-labeled tracer” value ([2]; 12 h following intranasal administration) was “most abundant in hippocampus and urine”, the “tissue distribution of 3H-labeled tracer” value ([2]; 24 h following intranasal administration) was “most abundant in hippocampus, urine and feces” and the “tissue distribution of 3H-labeled tracer” value ([2]; 48 h following intranasal administration) was “most abundant in hippocampus and fat tissues”. For the same compound, the “accumulation in different tissues” value ([2]; i.p. dosed group) was “highest tissue accumulations”, the “accumulation in different tissues” value ([2]; i.v. dosed group) was “highest tissue accumulations” and the “accumulation in hippocampus and lung” value ([2]; intranasal delivery, by 4 h) was “relative high levels of Bryostatin-1 accumulation”. The “accumulation in different tissues” value ([2]; oral route (oil formulation)) was “lowest”, the Hippocampal content [2, 5] was “relatively high hippocampal uptake rates were achieved and maintained; also recorded: slow rate of loss over 72 h” and the Lung content [2, 5] was “a peak at 4 h and rapid excretion by 8 h; also recorded: rapid rate of appearance at 4h followed by rapid loss at 8 h”. For the same compound, the “metabolism by liver cells” value (SK-HEP1 liver cells) was “not significantly metabolized”, the “inter-trial water maze performance (latency)” value ([3]; 0.01 μg intranasal) was “did not show this same improvement” and the “inter-trial water maze performance (latency)” value ([3]; 0.1 μg intranasal, p<0.05 compared to vehicle treated Down's mice) was “inter-trial interval improvement”. The “inter-trial water maze performance (latency)” value ([3]; 1 μg intranasal, p<0.001 compared to vehicle treated transgenic Down's mice) was “significant improvement”, the Concentration ([4]; Extra Virgin Olive Oil) was 2.9945 mg/100 mL and the Concentration ([4]; Extra Virgin olive with mixed natural tocopherol antioxidants, lecithin and medium chain triglyceride emulsifiers) was 2.4431 mg/100 mL. For the same compound, the Concentration ([4]; Isopropyl Alcohol (standard)) was 2.6035 mg/100 mL, the Concentration ([4]; Vegetable Oil) was 2.5475 mg/100 mL and the solubility in oils ([4]; variety of oils) was “soluble in a variety of different types of oil; also recorded: soluble in a variety of oils, with the best results in Extra Virgin Olive Oil, Vegetable Oil, and Extra Virgin Olive Oil with excipients”.
For CCC/C=C/C=C/C(=O)O[C@H]1[C@H]2C=C3C[C@H]([C@@H](C)O)OC(=O)C[C@H](O)C[C@@H]4C[C@H](OC(C)=O)C(C)(C)[C@](O)(C[C@@H]5C/C(=C\C(=O)OC)C[C@H](/C=C/C(C)(C)[C@]1(OC(=O)C2)O3)O5)O4 [Bryoid B3, Bryostatin-3], the alpha-secretase activity (alpha-secretase) was “improve the production of alpha-secretase over Bryostatin-1”.
